Structures can show the parent of a compound that is named as a salt.
How the values were obtained:
CDK2/CyclinE1 = target: T1, CDK2/CyclinE1 (Homo sapiens, UniProt P24941); experiment: In vitro CDK2/CyclinE1 enzyme activity test (ADP-Glo); type: biochemical; conditions: 150 μM ATP, 25° C., 60 minutes
T1 construct: purchased Promega
Procedure: CDK2/CyclinE1 kinase detection kit was purchased from Promega. Nivo multi-label analyzer (PerkinElmer).
(§1) Using the kinase buffer in the kit to dilute the enzyme, substrate, adenosine triphosphate and inhibitor.
The compound to be tested was diluted 5-fold to the 8th concentration with a discharge gun, that is, diluted from 50 μM to 0.65 nM, with a DMSO concentration of 5%, and replicated. Add 1 μL of each inhibitor concentration gradient, 2 μL CDK2/CyclinE1 enzyme (2 ng), 2 μL mixture of substrate and ATP (150 μM adenosine triphosphate, 0.1 μg/μL substrate) to the microplate, and the final concentration gradient of the compound is 10 μM dilution to 0.13 nM. The reaction system was placed at 25° C. for 60 minutes. After the reaction, add 5 μL of ADP-Glo reagent to each well, and continue the reaction at 25° C. for 40 minutes. After the reaction, add 10 μL of kinase detection reagent to each well. After reacting at 25° C. for 30 minutes, use a multi-label analyzer to read chemiluminescence. The integration time is 0.5 seconds.
Table 1 provides the CDK2/CyclinE1 enzymatic inhibitory activity of the compounds of the present invention.

CDK1/CyclinB1 = target: T2, CDK1/CyclinB1 (Homo sapiens, UniProt P06493); experiment: In vitro CDK1/CyclinB1 enzyme activity test (ADP-Glo); type: biochemical; conditions: 25 μM ATP, 25° C., 120 minutes
T2 construct: purchased Promega
T2 sequence (P06493 whole entry): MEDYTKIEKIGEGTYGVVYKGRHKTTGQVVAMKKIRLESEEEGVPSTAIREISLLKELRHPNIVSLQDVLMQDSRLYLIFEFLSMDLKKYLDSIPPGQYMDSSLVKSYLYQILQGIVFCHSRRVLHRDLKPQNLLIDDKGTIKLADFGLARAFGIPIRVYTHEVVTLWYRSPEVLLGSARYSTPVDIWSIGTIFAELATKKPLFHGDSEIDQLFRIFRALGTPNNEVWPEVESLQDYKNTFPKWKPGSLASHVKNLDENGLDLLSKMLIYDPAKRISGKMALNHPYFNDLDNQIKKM
T2 sequence (P14635 whole entry partner): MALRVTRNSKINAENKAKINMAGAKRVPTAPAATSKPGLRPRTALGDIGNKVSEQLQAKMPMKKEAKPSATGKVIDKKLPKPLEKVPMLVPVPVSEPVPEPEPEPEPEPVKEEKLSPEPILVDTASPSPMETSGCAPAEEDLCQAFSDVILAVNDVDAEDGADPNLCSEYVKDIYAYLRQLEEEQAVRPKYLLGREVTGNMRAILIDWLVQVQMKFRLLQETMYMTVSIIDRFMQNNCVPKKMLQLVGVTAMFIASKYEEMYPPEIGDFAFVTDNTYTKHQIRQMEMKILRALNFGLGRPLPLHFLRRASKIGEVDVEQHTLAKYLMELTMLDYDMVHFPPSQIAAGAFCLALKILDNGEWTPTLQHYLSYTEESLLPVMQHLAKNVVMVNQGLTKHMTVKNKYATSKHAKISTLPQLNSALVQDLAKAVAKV
Procedure: CDK1/CyclinB1 kinase detection kit was purchased from Promega. Nivo multi-label analyzer (PerkinElmer).
as §1
The compound to be tested was diluted 5-fold to the 8th concentration with a discharge gun, that is, diluted from 50 μM to 0.65 nM, with a DMSO concentration of 5%, and replicated. Add 1 μL of each inhibitor concentration gradient, 2 μL CDK1/CyclinB1 enzyme (12.5 ng), 2 μL mixture of substrate and ATP (25 μM adenosine triphosphate, 0.2 μg/μL substrate) into the microplate, and the final concentration gradient of the compound is 10 μM dilute to 0.13 nM. The reaction system was placed at 25° C. for 120 minutes. After the reaction, add 5 μL of ADP-Glo reagent to each well, and continue the reaction at 25° C. for 40 minutes. After the reaction, add 10 μL of kinase detection reagent to each well. After reacting at 25° C. for 30 minutes, use a multi-label analyzer to read chemiluminescence. The integration time is 0.5 seconds.
Table 1 provides the CDK1/CyclinB1 enzymatic inhibitory activity of the compounds of the present invention.

MV-4-11 cells = experiment: In vitro cell activity test, MV-4-11 proliferation (CellTiter-Glo); type: cell-based; conditions: Homo sapiens, MV4-11, 72 h, 3 days incubation
Procedure: IMDM medium, fetal bovine serum, penicillin/streptomycin antibiotics were purchased from Promega (Madison, Wis.). The MV-4-11 cell line was purchased from the Cell Bank of the Chinese Academy of Sciences. Nivo multi-label analyzer (PerkinElmer).
Plant MV-4-11 cells in a white 96-well plate, 80 μL of cell suspension per well, which contains 6000 MV-4-11 cells. The cell plate was cultured overnight in a carbon dioxide incubator.
The compound to be tested was diluted 5-fold to the 8th concentration with a discharge gun, that is, diluted from 2 mM to 26 nM, and replicated. Add 78 μL of culture medium to the middle plate, and then transfer 2 μL of each well of the gradient dilution compound to the middle plate according to the corresponding position, and transfer 20 μL of each well to the cell plate after mixing. The final concentration of the compound is 10 μM to 0.13 nM. The cell plate was placed in a carbon dioxide incubator for 3 days.
Add 25 μL of Promega CellTiter-Glo reagent per well to the cell plate and incubate at room temperature for 10 minutes to stabilize the luminescence signal. Use PerkinElmer Nivo multi-label analyzer to read.

CDK9/CyclinT1 = target: T3, CDK9/CyclinT1 (Homo sapiens, UniProt P50750); experiment: In vitro CDK9/CyclinT1 enzyme activity test (ADP-Glo); type: biochemical; conditions: 100 μM ATP, 25° C., 120 minutes
T3 construct: purchased Carna
T3 sequence (P50750 whole entry): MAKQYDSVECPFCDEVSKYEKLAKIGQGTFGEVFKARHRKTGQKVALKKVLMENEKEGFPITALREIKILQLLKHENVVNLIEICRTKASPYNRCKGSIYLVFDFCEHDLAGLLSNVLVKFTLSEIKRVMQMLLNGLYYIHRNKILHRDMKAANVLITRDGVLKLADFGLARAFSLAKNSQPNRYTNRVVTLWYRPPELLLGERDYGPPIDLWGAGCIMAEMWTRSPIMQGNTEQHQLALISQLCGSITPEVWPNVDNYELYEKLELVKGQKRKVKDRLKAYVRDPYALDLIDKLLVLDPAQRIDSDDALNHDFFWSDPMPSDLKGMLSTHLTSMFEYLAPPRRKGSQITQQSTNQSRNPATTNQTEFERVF
T3 sequence (O60563 whole entry partner): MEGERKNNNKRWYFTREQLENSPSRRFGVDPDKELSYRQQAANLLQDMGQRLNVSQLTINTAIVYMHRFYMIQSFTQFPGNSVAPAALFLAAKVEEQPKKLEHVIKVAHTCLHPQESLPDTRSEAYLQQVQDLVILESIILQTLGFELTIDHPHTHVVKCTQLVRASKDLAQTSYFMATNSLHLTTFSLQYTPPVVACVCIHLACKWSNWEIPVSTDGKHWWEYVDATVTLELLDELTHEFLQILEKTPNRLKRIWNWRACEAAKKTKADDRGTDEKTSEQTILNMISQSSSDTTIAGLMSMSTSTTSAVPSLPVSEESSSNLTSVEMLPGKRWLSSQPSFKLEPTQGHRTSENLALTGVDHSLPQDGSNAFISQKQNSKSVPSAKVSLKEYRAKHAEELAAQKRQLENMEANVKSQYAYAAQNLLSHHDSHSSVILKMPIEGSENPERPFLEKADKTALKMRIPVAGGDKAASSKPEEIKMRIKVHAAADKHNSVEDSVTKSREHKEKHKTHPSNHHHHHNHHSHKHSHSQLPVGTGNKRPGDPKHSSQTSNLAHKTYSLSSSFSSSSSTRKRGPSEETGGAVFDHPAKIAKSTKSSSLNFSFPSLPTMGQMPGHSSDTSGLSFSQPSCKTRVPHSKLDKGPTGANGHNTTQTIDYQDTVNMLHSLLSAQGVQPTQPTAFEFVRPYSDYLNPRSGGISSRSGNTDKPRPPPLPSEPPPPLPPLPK
Procedure: CDK9/CyclinT1 kinase was purchased from Carna, ADP-Glo detection kit was purchased from Promega, and PKDTide substrate and kinase reaction buffer were purchased from Signalchem. Nivo multi-label analyzer (PerkinElmer).
The kinase buffer in the kit was used to dilute the enzyme, substrate, adenosine triphosphate and inhibitors.
The compound to be tested was diluted by 5 times for 8 concentrations with a discharge gun, ie., dilution from 50 μM to 0.65 nM, with a DMSO concentration of 5%, and replicated. 1 μL of each concentration gradient of the inhibitor, 2 μL CDK9/CyclinT1 enzyme (4 ng), 2 μL of a mixture of substrate and ATP (100 μM adenosine triphosphate, 0.2 μg/μL substrate) was added to the microplate, and the final concentration gradient of the compound was 10 μM dilution to 0.13 nM. The reaction system was placed at 25° C. for 120 minutes. After the reaction, 5 μL of ADP-Glo reagent was added to each well, and the reaction was allowed to continue at 25° C. for 40 minutes. After the reaction, 10 μL of kinase detection reagent was added to each well. After reacting at 25° C. for 30 minutes, a multi-label analyzer was used to read chemiluminescence. The integration time was 0.5 seconds.
Table 1 provides the enzymatic inhibitory activity of the compounds of the present invention on CDK9/CyclinT1.

[1] = background; cited from earlier work
[2] = test system: MV4-11 acute myeloid leukemia xenograft (CDX); experiment: In vivo drug efficacy study (1), MV4-11 CDX model; conditions: 15 mg/kg injected weekly; for Tumor Volume Day 0: Day 0 (start of administration)
Procedure: In vivo drug efficacy experiments were performed on human-derived tumor cell line-based xenograft (CDX) BALB/c nude mice derived from patients with MV4-11 acute myeloid leukemia subcutaneously implanted.
(§2) Female 6- to 8-week old BALB/c nude mice which weighed about 18-22 g were kept in separate ventilated cages (3 mice per cage) in a special pathogen-free environment. All the cages, matts and water were disinfected before use. All the animals had free access to standard certified commercial laboratory diet. A total of 30 mice were purchased from Shanghai Lingchang biological science and technology Co., LTD. for study. Each mouse was subcutaneously implanted with tumor cells in the right next abdomen (10×10^6 in 0.2 mL of phosphate buffer) for tumor growth. The administration started when the average tumor volume reached approximately 110 cubic millimeters. The test compound was injected weekly at a dose of 15 mg/kg. The tumor volumes were measured with a two-dimensional caliper twice a week, and the volumes were expressed in cubic millimeters and calculated by the formula: V=0.5a×b^2, where a and b were the major diameter and the minor diameter of the tumor, respectively. Antitumor efficacy was determined by dividing an average increase of the tumor volumes of the animals treated with the compounds by an average increase of the tumor volumes of the untreated animals.

[3] = clinical research, background; cited from earlier work
[4] = test system: MV4-1 acute myeloid leukemia xenograft (CDX); experiment: In vivo drug efficacy study (2), MV4-11 CDX model; conditions: 10 mg/kg injected weekly; for Tumor Volume Day 0: Day 0 (start of administration)
Procedure: In vivo drug efficacy experiments were performed on human-derived tumor cell line-based xenograft (CDX) BALB/c nude mice derived from patients with MV4-1 acute myeloid leukemia subcutaneously implanted.
as §2, with “36” for “30”, “121” for “110”, “10” for “15”

Structure (SMILES)	IC50 (CDK2/CyclinE1) [µM]	IC50 (CDK1/CyclinB1) [µM]	IC50 (MV-4-11 cells) [µM]	IC50 (CDK9/CyclinT1) [µM]	other results
CC(=O)N[C@@H]1CCC[C@H](C(=O)Nc2cc(-c3cnn4c3CC(C)(C)C4)c(Cl)cn2)C1 [AZD4573]	0.001	0.002	–	–	metabolism (in words) [1]: not good; Animals' Drug Tolerance [2]: Well; Tumor Volume Day 0 [2]: 110 mm^3; Tumor Volume Day 7 [2]: 173 mm^3; Tumor Volume Day 17 [2]: 262 mm^3; Tumor Volume Day 28 [2]: 975 mm^3
COc1cc(F)ccc1-c1cc(Nc2cc(CS(C)(=N)=O)ccn2)ncc1F (stereo not shown) [BAY1251152]	0.193	0.3	0.0282	–	clinically most important grade 3/4 and dose-limiting adverse side effect [3]: neutropenia; Animals' Drug Tolerance [2]: 5/6 mouse; Tumor Volume Day 0 [2]: 110 mm^3; Tumor Volume Day 7 [2]: 107 mm^3; Tumor Volume Day 17 [2]: 83 mm^3; Tumor Volume Day 28 [2]: 426 mm^3
Clc1cnc2[nH]c(C3CCNCC3)cc2c1-c1cnn(CC2CC2)c1 [Compound 1 (hydrochloride)]	0.112	0.0887	0.0147	0.0077	Animals' Drug Tolerance [4]: Well; Tumor Volume Day 0 [4]: 121 mm^3; Tumor Volume Day 7 [4]: 121 mm^3; Tumor Volume Day 17 [4]: 151 mm^3; Tumor Volume Day 28 [4]: 419 mm^3; Animals' Drug Tolerance [2]: Well; Tumor Volume Day 0 [2]: 110 mm^3; Tumor Volume Day 7 [2]: 109 mm^3; Tumor Volume Day 17 [2]: 42 mm^3; Tumor Volume Day 28 [2]: 107 mm^3
Clc1ccccc1Cn1cc(-c2c(Cl)cnc3[nH]c(C4CCNCC4)cc23)cn1 [Compound 10 (formate)]	0.549	0.0879	0.0791	0.0069	–
Clc1cccc(Cn2cc(-c3c(Cl)cnc4[nH]c(C5CCNCC5)cc34)cn2)c1 [Compound 11 (formate)]	0.214	0.12	0.0648	0.0064	–
Clc1ccc(Cn2cc(-c3c(Cl)cnc4[nH]c(C5CCNCC5)cc34)cn2)cc1 [Compound 12]	0.549	0.26	0.286	0.0077	–
Cn1cc(-c2c(Cl)cnc3[nH]c(C4CCNCC4)cc23)cn1 [Compound 15 (hydrochloride)]	0.685	0.824	0.0345	0.0043	Animals' Drug Tolerance [4]: Well; Tumor Volume Day 0 [4]: 121 mm^3; Tumor Volume Day 7 [4]: 87 mm^3; Tumor Volume Day 17 [4]: 74 mm^3; Tumor Volume Day 28 [4]: 332 mm^3

Further lines, with some results ahead:

IC50 (CDK2/CyclinE1) [µM]	IC50 (CDK1/CyclinB1) [µM]	IC50 (MV-4-11 cells) [µM]	IC50 (CDK9/CyclinT1) [µM]	Structure (SMILES)	other results
0.334	0.756	0.0948	0.0103	CC(C)N1CCC(c2cc3c(-c4cnn(CC5CC5)c4)c(Cl)cnc3[nH]2)CC1 [4 (hydrochloride)]	–
0.235	1.55	0.0638	0.0106	COCCN1CCC(c2cc3c(-c4cnn(CC5CC5)c4)c(Cl)cnc3[nH]2)CC1 [5 (hydrochloride)]	–
0.0794	0.255	0.0357	0.0071	CN1CCC(c2cc3c(-c4cnn(CC5CC5)c4)c(Cl)cnc3[nH]2)CC1 [Compound 2 (formate)]	–
0.933	0.879	0.252	0.018	c1cc(-c2cnn(CC3CC3)c2)c2cc(C3CCNCC3)[nH]c2n1 [Compound 3 (formate)]	–
0.105	0.416	0.0074	0.0141	CCN1CCC(c2cc3c(-c4cnn(CC5CC5)c4)c(Cl)cnc3[nH]2)CC1 [Compound 3 (hydrochloride)]	–
0.394	1.03	0.052	0.0096	COCC(C)N1CCC(c2cc3c(-c4cnn(CC5CC5)c4)c(Cl)cnc3[nH]2)CC1 (stereo not shown) [Compound 6 (formate)]	–
0.113	0.366	0.0866	0.0052	Clc1cnc2[nH]c(C3CCNCC3)c(Cl)c2c1-c1cnn(CC2CC2)c1 [Compound 7]	–
0.075	0.178	0.0546	0.0071	Clc1cnc2[nH]c(C3CCNCC3)cc2c1-c1cnn(CC2CCCC2)c1 [Compound 8 (formate)]	–
0.105	0.133	0.0673	0.0063	Clc1cnc2[nH]c(C3CCNCC3)cc2c1-c1cnn(Cc2ccccc2)c1 [Compound 9 (formate)]	–
1.36	–	0.464	0.0384	Clc1cnc2[nH]c(C3CCNCC3)nc2c1-c1cnn(CC2CC2)c1 [Compound 14]	–

Source: patent US20220267321A1, “AZAINDOLE PYRAZOLE COMPOUNDS AS CDK9 INHIBITORS” (MEDSHINE DISCOVERY INC., priority 2019, published 2022)
